# Literature values, collected in patent US20180200206A1, “[…] METHODS AND COMPOSITIONS FOR TREATING BREAST DISORDERS” (ATOSSA GENETICS INC., priority 2015, published 2018).
# Biological target: estrogen receptor (Homo sapiens, UniProt P03372)
# Settings: more potent than tamoxifen; stated as known in the art
# estrogen receptor, sequence (P03372 whole entry): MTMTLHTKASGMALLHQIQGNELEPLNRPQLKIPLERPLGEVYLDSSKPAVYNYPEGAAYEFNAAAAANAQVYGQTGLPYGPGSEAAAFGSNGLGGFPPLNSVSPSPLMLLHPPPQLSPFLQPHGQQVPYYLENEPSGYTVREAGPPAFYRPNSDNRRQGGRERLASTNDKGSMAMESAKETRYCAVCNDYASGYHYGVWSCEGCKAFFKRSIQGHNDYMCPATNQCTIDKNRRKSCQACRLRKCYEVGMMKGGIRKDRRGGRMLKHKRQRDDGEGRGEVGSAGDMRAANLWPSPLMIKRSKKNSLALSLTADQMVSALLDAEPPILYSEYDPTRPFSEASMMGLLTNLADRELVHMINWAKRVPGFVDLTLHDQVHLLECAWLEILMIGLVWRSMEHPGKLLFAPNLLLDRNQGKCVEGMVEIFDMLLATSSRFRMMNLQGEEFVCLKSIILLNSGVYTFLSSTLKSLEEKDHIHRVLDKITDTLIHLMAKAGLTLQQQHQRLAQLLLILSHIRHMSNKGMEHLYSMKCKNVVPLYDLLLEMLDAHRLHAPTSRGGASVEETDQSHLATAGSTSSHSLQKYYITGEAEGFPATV
substance,measurement,value
4-hydroxytamoxifen,potency relative to tamoxifen,100 times
